This note sets out measurements from US20020077345A1, “Cis-substituted aminocycloalkylpyrrolidine derivatives” (priority 1997, published 2002).

Converted amounts (≈) assume the structure as drawn. Where a name gives a salt, the structure may show the parent alone. Read-outs that look alike come from different tables or passages of the source. Marks after values point to notes of the source that are not given here. Where only a bound is given, the exact number is not on record here.

Data set [1] deals with Slc:ddy male mice. The experiment in a line: Acute toxicity, intravenous administration to mice. The class given is in vivo. Particulars: deaths/mice dosed. The method, then: A solution of 5-amino-7-[4-(R)-(1-aminocyclopropyl)-3-(S)-fluoro-1-pyrrolidinyl]-6-fluoro-1-[2-(S)-fluoro-1-(R)-cyclopropyl]-1,4-dihydro-8-methyl-4-oxoquinoline-3-carboxylic acid (abbreviated as cis) hydrochloride (Example 2) or 5-amino-7-[4-(R)-(1-aminocyclopropyl)-3-(R)-fluoro-1-pyrrolidinyl]-6-fluoro-1-(2-(S)-fluoro-1-(R)-cyclopropyl]-1,4-dihydro-8-methyl-4-oxoquinoline-3-carboxylic acid (abbreviated as trans) hydrochloride in distilled water for injection was administered intravenously to Slc:ddy male mice (five mice per group) and the symptoms are observed. The results are as follows.

The test system of data set [2] is Pr. vulgaris, 08601. As to the kind of experiment: Antimicrobial activity (MIC), standard method of Japan Society of Chemotherapy. The class given is cell-based. As for the experimental part: (§1) To further illustrate the present invention in greater detail, and not by way of limitation, the following Examples will be given. The antimicrobial activity of each target compound was evaluated in accordance with the standard method specified by Japan Society of Chemotherapy and expressed in MIC (μg/ml).

Data set [3] has as its system Pr. mirabilis, IFO-3849. Described as above. The class given is cell-based. As for the experimental part:
as §1

The subject of data set [4] is Ser. marcescens, 10100. The description is as above. The format is cell-based. As for the experimental part:
as §1

The subject of data set [5] is S. aureus, 209P. Described as above. The format is cell-based. The method, then:
as §1

Data set [6] has as its system X. maltophilia, 11D-1275. The description is as above. The class given is cell-based. As for the experimental part:
as §1

The test system of data set [7] is E. coli, NIHJ. The description is as above. The class given is cell-based. The method, then: as §1
The test system of data set [8] is S. aureus, 870307. The description is as above. The format is cell-based. As for the experimental part: as §1
Data set [9] relates to Ps. aeruginosa, 32104. Described as above. The class given is cell-based. As for the experimental part: as §1
Data set [10] has as its system S. flexneli, 2A 5503. The data set is described as above. The format is cell-based. The method, then:
as §1

In data set [11] the test system is Ps. aeruginosa, 32121. Described as above. The class given is cell-based. The method, then:
as §1

In data set [12] the test system is Str. faecalis, ATCC-19433. The data set is described as above. The format is cell-based. The method, then: as §1
In data set [13] the test system is Str. pyogenes, G-36. Described as above. The class given is cell-based. As for the experimental part:
as §1

The test system of data set [14] is S. epidermidis, 56500. The data set is described as above. The class given is cell-based. The method, then:
as §1

The mark [15] stands for this setting: 150 mg/kg intravenously, five per group.
Where [16] appears, read: Proteus vulgaris, read-out: MIC.
Where [17] appears, read: Proteus mirabilis, IFO3849, read-out: MIC.
Setting [18] is: Serratia marcescens, read-out: MIC.
[19] abbreviates: Staphylococcus aureus, read-out: MIC.
Where [20] appears, read: Stenotrophomonas maltophilia, 11D1275, read-out: MIC.
The mark [21] stands for this setting: Escherichia coli, read-out: MIC.
Setting [22] is: Pseudomonas aeruginosa, read-out: MIC.
[23] abbreviates: Enterococcus faecalis, ATCC19433, read-out: MIC.
[24] abbreviates: Streptococcus pyogenes, G36, read-out: MIC.
The mark [25] stands for this setting: Staphylococcus epidermidis, read-out: MIC.

As for `Cc1c(N2CC(F)[C@@H](C3(N)CCC3)C2)c(F)c(N)c2c(=O)c(C(=O)O)cn(C3CC3F)c12` (single isomer, unassigned; isomer b) [Example 9], the Number of death result in data set [1] (setting [15]) is given as “same result”.
The same measure, in the same setting: in the case of `Cc1c(N2CC(CO)C(C3(N)CC3)C2)c(F)c(N)c2c(=O)c(C(=O)O)cn(C3CC3)c12` (stereo not drawn) [Example 1, 5-Amino-7-[cis-4-(1-aminocycloproiyl)-3-hydroxymethyl-1-pyrrolidinyl]-1-cyclopropyl-6-fluoro-1,4-dihydro-8-methyl-4-oxoquinoline-3-carboxylic acid] it was “same result”.
The term MIC denotes the lowest concentration that inhibits growth of the organism. Consider `Cc1c(N2C[C@@H](F)[C@@H](C3(N)CC3)C2)c(F)c(N)c2c(=O)c(C(=O)O)cn([C@@H]3C[C@@H]3F)c12` [Example 2, 5-Amino-7-[4-(R)-(1-aminocyclopropyl)-3-(S)-fluoro-1-pyrrolidinyl]-6-fluoro-1-[2-(S)-fluoro-1-(R)-cyclopropyl1-1,4-dihydro-8-methyl-4-oxoquinoline-3-carboxylic acid hydrochloride], for which the MIC in data set [2] (setting [16]) was 0.013 µg/mL; in data set [3] (setting [17]), 0.025 µg/mL; in data set [4] (setting [18]) it was 0.05 µg/mL; in [5] (setting [19]) it was no more than 0.003 µg/mL; in [6] (setting [20]) it was 0.05 µg/mL; in data set [7] (setting [21]) it was no more than 0.003 µg/mL. Moreover, the MIC in data set [8] (setting [19]) was 0.025 µg/mL; in data set [9] (setting [22]), 0.1 µg/mL; in data set [10], no more than 0.003 µg/mL; in [11] (setting [22]), 0.05 µg/mL; in data set [12] (setting [23]), 0.025 µg/mL; in data set [13] (setting [24]), no more than 0.003 µg/mL. In addition, in [14] (setting [25]), the MIC is no more than 0.003 µg/mL. Besides, in [1] (setting [15]), the Number of death was 0/5.
Turning to `COc1c(N2C[C@@H](F)[C@@H](C3(N)CC3)C2)c(F)c(N)c2c(=O)c(C(=O)O)cn([C@@H]3C[C@@H]3F)c12` [Example 3], the MIC was 0.05 µg/mL (≈ 0.111 µM) in data set [2] (setting [16]); 0.1 µg/mL (≈ 0.221 µM) in [3] (setting [17]); 0.2 µg/mL (≈ 0.442 µM) in data set [4] (setting [18]); no more than 0.003 µg/mL in [5] (setting [19]); 0.2 µg/mL (≈ 0.442 µM) in data set [6] (setting [20]); 0.006 µg/mL (≈ 0.0133 µM) in data set [7] (setting [21]). The MIC in data set [8] (setting [19]) was found to be 0.025 µg/mL (≈ 0.0553 µM); in [9] (setting [22]) it was 0.39 µg/mL (≈ 0.862 µM); in [10] it was 0.006 µg/mL (≈ 0.0133 µM); in data set [11] (setting [22]), 0.2 µg/mL (≈ 0.442 µM); in [12] (setting [23]) it was 0.05 µg/mL (≈ 0.111 µM); in data set [13] (setting [24]), 0.013 µg/mL (≈ 0.0287 µM). In addition, the minimal inhibitory concentration (MIC) in [14] (setting [25]) was 0.006 µg/mL (≈ 0.0133 µM). In addition, the Number of death result in data set [1] (setting [15]) is recorded as “same result”.
Regarding `C[C@H]1COc2c(N3C[C@@H](F)[C@@H](C4(N)CC4)C3)c(F)cc3c(=O)c(C(=O)O)cn1c23` [Example 4, 10-[4-(R)-(1-Aminocyclopropyl)-3-(S)-fluoro-1-pyrrolidinyl]-9-fluoro-2,3-dihydro-3-(S)-methyl-7-oxo-7H-pyrido[1,2,3-de][1,4]benzoxazine-6-carboxylic acid], the Number of death entry in [1] (setting [15]) was “same result”.
As to `COc1c(N2C[C@@H](F)[C@@H](C3(N)CC3)C2)c(F)cc2c(=O)c(C(=O)O)cn([C@@H]3C[C@@H]3F)c12` [Example 5, 7-[4-(R)-(1-Aminocyclopropyl)-3-(S)-fluoro-1-pyrrolidinyl]-6-fluoro-1-[2-(S)-fluoro-1-(R)-cycloproyyl]-1,4-dihydro-8-methoxy-4-oxoquinoline-3-carboxylic acid], the minimal inhibitory concentration (MIC) in [2] is 0.006 µg/mL (≈ 0.0137 µM); in [3], 0.05 µg/mL (≈ 0.114 µM); in data set [4] it was 0.10 µg/mL (≈ 0.229 µM); in data set [5], “≦0.003 μg/ml”; in data set [6] it was 0.20 µg/mL (≈ 0.457 µM); in [7], “≦0.003 μg/ml”. Further, the MIC was found to be 0.025 µg/mL (≈ 0.0572 µM) in data set [8]; 0.20 µg/mL (≈ 0.457 µM) in data set [9]; 0.006 µg/mL (≈ 0.0137 µM) in data set [10] (S. flexneli, 2A 5503); 0.10 µg/mL (≈ 0.229 µM) in data set [11]; 0.025 µg/mL (≈ 0.0572 µM) in data set [12]; 0.006 µg/mL (≈ 0.0137 µM) in [13]. For the same molecule, in data set [14], the minimum inhibitory concentration (MIC) came out at 0.013 µg/mL (≈ 0.0297 µM). Besides, in [1] (setting [15]), the Number of death result is given as “same result”.
For the molecule `C[C@H]1COc2c(N3C[C@@H](F)[C@@H](C4(N)CC4)C3)c(F)cc3c(=O)c(C(=O)O)cn1c23.Cl` [Example 6, 10-[4-(R)-(1-Aminocyclopropyl)-3-(S)-fluoro-1-pyrrolidinyl]-9-fluoro-2,3-dihydro-3-(S)-methyl-7-oxo-7H-pyrido[1,2,3-de][1,4]benzoxazine-6-carboxylic acid hydrochloride], the minimal inhibitory concentration (MIC) is 0.025 µg/mL in [2] (setting [16]); 0.1 µg/mL in data set [3] (setting [17]); 0.1 µg/mL in [4] (setting [18]); 0.006 µg/mL in data set [5] (setting [19]); 0.39 µg/mL in data set [6] (setting [20]); 0.01 µg/mL in [7] (setting [21]). The minimal inhibitory concentration (MIC) came out at 0.2 µg/mL in [8] (setting [19]); 0.39 µg/mL in [9] (setting [22]); 0.01 µg/mL in [10]; 0.1 µg/mL in data set [11] (setting [22]); 0.05 µg/mL in data set [12] (setting [23]); 0.01 µg/mL in data set [13] (setting [24]). In addition, the MIC in data set [14] (setting [25]) was found to be 0.025 µg/mL.
Turning to `C[C@H]1COc2c(N3C[C@@H](F)[C@@H](C4(N)CC4)C3)c(F)c(N)c3c(=O)c(C(=O)O)cn1c23` [Example 8, 8-Amino-10-[4-(R)-(1-aminocyclopropyl)-3-(S)-fluoro-1-pyrrolidinyl]-9-fluoro-2,3-dihydro-3-(S)-methyl-7-oxo-7H-pyrido[1,2,3-de][1,4]benzoxazine-6-carboxylic acid], the minimal inhibitory concentration (MIC) in [2] (setting [16]) amounted to 0.1 µg/mL (≈ 0.238 µM); in [3] (setting [17]), 0.1 µg/mL (≈ 0.238 µM); in [4] (setting [18]), 0.2 µg/mL (≈ 0.476 µM); in data set [5] (setting [19]), 0.006 µg/mL (≈ 0.0143 µM); in data set [6] (setting [20]), 0.39 µg/mL (≈ 0.928 µM); in data set [7] (setting [21]), 0.006 µg/mL (≈ 0.0143 µM). For the same molecule, the MIC in data set [8] (setting [19]) stood at 0.2 µg/mL (≈ 0.476 µM); in [9] (setting [22]), 0.39 µg/mL (≈ 0.928 µM); in [10], 0.013 µg/mL (≈ 0.0309 µM); in [11] (setting [22]) it was 0.2 µg/mL (≈ 0.476 µM); in data set [12] (setting [23]), 0.05 µg/mL (≈ 0.119 µM); in data set [13] (setting [24]) it was 0.025 µg/mL (≈ 0.0595 µM). Moreover, the minimum inhibitory concentration (MIC) in [14] (setting [25]) came to 0.013 µg/mL (≈ 0.0309 µM). In addition, in data set [1] (setting [15]), the Number of death entry is “same result”.
Take `Cc1c(N2C[C@H](F)[C@@H](C3(N)CC3)C2)c(F)c(N)c2c(=O)c(C(=O)O)cn([C@@H]3C[C@@H]3F)c12` [trans, 5-amino-7-[4-(R)-(1-aminocyclopropyl)-3-(R)-fluoro-1-pyrrolidinyl]-6-fluoro-1-(2-(S)-fluoro-1-(R)-cyclopropyl]-1,4-dihydro-8-methyl-4-oxoquinoline-3-carboxylic acid, reference compound]: the Number of death in data set [1] (50 mg/kg intravenously, five per group) is given as 0/5; in [1] (100 mg/kg intravenously, test stopped at second death) it was 2/2*; in [1] (setting [15]), 2/2*.
